Experiments:
B16 = settings: Ogbourne et al. 2004; cited from earlier work
[1] = Ogbourne et al. 2004; cited from earlier work
Tattoo studies = format: in vivo, SKH1/hr mice; settings: 50 μl topically daily for 2 days (Days 12 & 13), followed to Day 232, n=5
Description: Fifteen SKH1/hr mice are tattooed on their dorsa with an about 1 cm×about 1 cm cross using human grade blue tattoo ink (Tattoo supplies Australia, Catalogue number FFMB) on Day 0. Once the tattooed area heals (after 12 days), the tattoo (about 100 mm^2) is topically treated daily for 2 days with 50 μl of PEP005 gel or placebo gel (Day 12 & Day 13). Two PEP005 doses are tested: 0.1% and 0.25% (w/v). The mice are examined over time to assess any changes to the tattooed area and photographs are taken.
The aim study is to determine whether PEP005 gel can remove tattoo markings when applied topically. Fifteen mice are tattooed with a cross on their dorsa. Twelve days after the tattoos are drawn, they are treated topically daily for 2 days with 0.1% PEP005, 0.25% PEP005 or placebo gel. The photographs in FIG. 1 show the tattoo just prior to the first treatment (Day 12), 24 h after the first treatment (Day 13) and at different time points after the second treatment (from Day 14 onwards). […] One week after the second dose, an eschar encompassing the whole treatment area forms. This contracts over time and fully resolves after about 3 weeks (Day 32). […] Six to seven months after the PEP005 treatment is applied, the treated area heals, leaving skin with a slight pink tinge. […] There is no change in the placebo treated tattoos over this time frame. […]

anti-T7 antibodies = assay: T7 ELISA of serum from cured mice; format: in vivo, SKH1/hr mice
Description: Blood (˜50-100 μl) 1 s taken by tail bleeding the mice and is collected into 0.8 ml MiniCollect® Z Serum Separator tubes that are coated with spray-dried clot activator (Greiner bio-one Cat. Num. 450472) and are spun at 3000 rpm in a microfuge at room temperature for 10 min. The serum is collected and stored at 4° C. for analysis of anti-T7 antibodies by ELISA.
Preparation of T7 ELISA plates: T7 cells are grown to 90% confluence. The medium is aspirated and the cells are washed once with ice-cold PBS. T7 cells are harvested by scraping in PBS supplemented with protease inhibitor cocktail (PIC) and disrupted by sonication at 4° C. for 1-2 min. The T7 lys ate solution is supplemented with bicarbonate buffer (pH 9.6) containing PIC to a final volume of 40 ml and 70 μl/well is added to each well in a 96 well plate (Nunc, Invitro Technologies Cat. Num. 442404). The plates are dried overnight at 37° C.
The following day, the plates are blocked with 10% (w/v) skim milk in PBS for 1 h at room temperature. Meanwhile mouse serum is prepared by diluting 1:7 to 1:413343 in 3-fold dilutions in PBS/0.01% Tween20 (v/v)/1% (w/v) skim milk for the IgG2a plate and 1:10 10 […] in 3-fold dilutions for the IgG1 plate. […] Spectrophotometric readings are taken on an ELISA plate reader at 405 nm and graphs are generated using Graphpad Prism Version 5.01 software. […]

**Q.** For `C/C=C(/C)C(=O)O[C@H]1C(C)=C[C@]23C(=O)[C@@H](C=C(CO)[C@@H](O)[C@]12O)[C@H]1[C@@H](C[C@H]3C)C1(C)C` [ingenol mebutate], which LD90 (B16) is on record?
**A.** Its LD90 is 190 µM.

**Q.** And the LD90 values [1]?
**A.** Its LD90 values is 180 to 220 µM.

**Q.** And the “removal of tattoo markings” value (Tattoo studies)?
**A.** The value was “eradication of the tattoo markings”.

**Q.** And the “IgG1 and IgG2a anti-T7 antibodies vs naïve mice” value (anti-T7 antibodies; cured female mice bled 107 days post treatment, 0.25% topical)?
**A.** Its value is “significantly more”.

**Q.** What about the anti-tumour antibodies (anti-T7 antibodies; separate group, day 156 post treatment) of the same compound?
**A.** The anti-tumour antibodies was “barely detectable”.
